Reference: PubChem BioAssay AID256 (DTP/NCI, 2004)
“And” between values parts separate entries of the source, which are not always exact repeats. Equal values may be shown once. Toxic doses and inconclusive results are not listed. The calls were made as follows: active = survival T/C of 150% or more; inactive = T/C below 125% in these data.

Tested on: CD2F1 mice, L1210 leukemia ip, survival T/C
Assay: NCI In Vivo Anticancer Drug Screen. Data for tumor model L1210 Leukemia (intraperitoneal) in CD2F1 (CDF1) mice
Conditions: higher = longer survival
Procedure, shortened: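 Tumor-bearing mice (transplanted tumor) were split into treated and vehicle control groups, and the measured endpoint of each treated group was divided by that of its vehicle controls.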

[1] = endpoint: mean survival time, dose: 100.0 mg/kg/injection, schedule: Q01DX009 (ip), vehicle: saline with Tween-80
[2] = endpoint: mean survival time, dose: 100.0 mg/kg/injection, schedule: Q04DX003 (ip), vehicle: saline with Tween-80
[3] = endpoint: mean survival time, dose: 200.0 mg/kg/injection, schedule: Q01DX009 (ip), vehicle: saline with Tween-80
[4] = endpoint: mean survival time, dose: 200.0 mg/kg/injection, schedule: Q04DX003 (ip), vehicle: saline with Tween-80
[5] = endpoint: mean survival time, dose: 400.0 mg/kg/injection, schedule: Q01DX009 (ip), vehicle: saline with Tween-80
[6] = endpoint: mean survival time, dose: 400.0 mg/kg/injection, schedule: Q04DX003 (ip), vehicle: saline with Tween-80
[7] = endpoint: mean survival time, dose: 100.0 mg/kg/injection, schedule: Q04DX002 (ip), vehicle: saline
[8] = endpoint: mean survival time, dose: 200.0 mg/kg/injection, schedule: Q04DX002 (ip), vehicle: saline
[9] = endpoint: mean survival time, dose: 400.0 mg/kg/injection, schedule: Q04DX002 (ip), vehicle: saline
[10] = endpoint: mean survival time, dose: 50.0 mg/kg/injection, schedule: Q04DX002 (ip), vehicle: saline with Tween-80
[11] = endpoint: mean survival time, dose: 100.0 mg/kg/injection, schedule: Q04DX002 (ip), vehicle: saline with Tween-80
[12] = endpoint: mean survival time, dose: 200.0 mg/kg/injection, schedule: Q04DX002 (ip), vehicle: saline with Tween-80

Measured: T/C

COc1cccc2c1C(=O)c1c(O)c3c(c(O)c1C2=O)CC(O)(/C(C)=N/NC(=O)CCCC(=O)N/N=C(\C)C1(O)Cc2c(O)c4c(c(O)c2C(OC2CC(N)C(O)C(C)O2)C1)C(=O)c1c(OC)cccc1C4=O)CC3OC1CC(N)C(O)C(C)O1 (stereo not drawn)
inactive: endpoint: mean survival time, dose: 0.2 mg/kg/injection, schedule: Q01DX009 (ip), vehicle: water 101 % of control | endpoint: mean survival time, dose: 0.39 mg/kg/injection, schedule: Q01DX009 (ip), vehicle: water 98 % of control | endpoint: mean survival time, dose: 0.78 mg/kg/injection, schedule: Q01DX009 (ip), vehicle: water 109 % of control | endpoint: mean survival time, dose: 1.56 mg/kg/injection, schedule: Q01DX009 (ip), vehicle: water 104 % of control | endpoint: mean survival time, dose: 3.13 mg/kg/injection, schedule: Q01DX009 (ip), vehicle: water 114 % of control

NC(N)=N/N=C(/c1ccccc1)c1ccc(F)cc1
inactive: endpoint: mean survival time, dose: 50.0 mg/kg/injection, schedule: Q01DX009 (ip), vehicle: saline 101 % of control

CNc1ccc(CC(=O)O)cc1
inactive: endpoint: mean survival time, dose: 100.0 mg/kg/injection, schedule: Q04DX003 (ip), vehicle: Klucel (hydroxypropylcellulose) (HPC) 92 % of control | endpoint: mean survival time, dose: 200.0 mg/kg/injection, schedule: Q04DX003 (ip), vehicle: Klucel (hydroxypropylcellulose) (HPC) 93 % of control | endpoint: mean survival time, dose: 400.0 mg/kg/injection, schedule: Q04DX003 (ip), vehicle: Klucel (hydroxypropylcellulose) (HPC) 96 % of control

N/C(CCSc1ccccc1N=Cc1ccccc1O)=N/O
inactive: endpoint: mean survival time, dose: 3.13 mg/kg/injection, schedule: Q01DX009 (ip), vehicle: olive oil, sesame oil, peanut oil 95 % of control | endpoint: mean survival time, dose: 6.25 mg/kg/injection, schedule: Q01DX009 (ip), vehicle: olive oil, sesame oil, peanut oil 94 % of control | endpoint: mean survival time, dose: 12.5 mg/kg/injection, schedule: Q01DX009 (ip), vehicle: olive oil, sesame oil, peanut oil 98 % of control | endpoint: mean survival time, dose: 25.0 mg/kg/injection, schedule: Q01DX009 (ip), vehicle: olive oil, sesame oil, peanut oil 100 % of control | endpoint: mean survival time, dose: 50.0 mg/kg/injection, schedule: Q01DX009 (ip), vehicle: olive oil, sesame oil, peanut oil 100 % of control

O=S(=O)(Nc1c2ccccc2c(NS(=O)(=O)c2ccccc2)c2ccccc12)c1ccccc1
inactive: endpoint: mean survival time, dose: 25.0 mg/kg/injection, schedule: Q01DX001 (ip), vehicle: saline sonified 96 % of control | endpoint: mean survival time, dose: 50.0 mg/kg/injection, schedule: Q01DX001 (ip), vehicle: saline sonified 90 % of control | endpoint: mean survival time, dose: 100.0 mg/kg/injection, schedule: Q01DX001 (ip), vehicle: saline sonified 95 % of control

S=C(Nc1ccc(Cl)cc1)Nc1ccc(Cl)cc1 (tested in a mixture with another compound)
inactive: [1] 92 % of control | [2] 91 % of control | [3] 97 % of control | [4] 88 % of control | [5] 90 % of control | [6] 93 % of control

NNc1ccccc1-c1nc2ccccc2[nH]1
inactive: endpoint: mean survival time, dose: 75.0 mg/kg/injection, schedule: Q01DX001 (ip), vehicle: saline 96 % of control | endpoint: mean survival time, dose: 150.0 mg/kg/injection, schedule: Q01DX001 (ip), vehicle: saline 96 % of control | endpoint: mean survival time, dose: 300.0 mg/kg/injection, schedule: Q01DX001 (ip), vehicle: saline 108 % of control

C=CC1CCCCC1C (stereo not drawn)
inactive: [2] 100 % of control | [4] 100 % of control | [6] 103 % of control

N#CCCN(CCCN1CCOCC1)C(=S)Nc1ccc(Cl)cc1
inactive: [1] 104 % of control | [3] 104 % of control | [5] 93 % of control

CC(=O)C(C)(C)C
inactive: [7] 96 % of control | [8] 104 % of control | [9] 104 % of control

Nc1ncnc2[nH]ncc12
inactive: endpoint: median survival time, dose: 3.0 mg/kg/injection, schedule: Q01DX009 (ip), vehicle: saline 100 % of control and 105 % of control | endpoint: median survival time, dose: 6.0 mg/kg/injection, schedule: Q01DX009 (ip), vehicle: saline 114 % of control and 111 % of control | endpoint: median survival time, dose: 12.0 mg/kg/injection, schedule: Q01DX009 (ip), vehicle: saline 121 % of control and 111 % of control

Cc1ccc([N+](=O)[O-])cc1NC(=O)COc1ccc(Cl)cc1
inactive: [2] 98 % of control | [4] 94 % of control | [6] 90 % of control

CCCCCCCCCCCCCCOc1ccc(C(=O)O)cc1
inactive: endpoint: mean survival time, dose: 100.0 mg/kg/injection, schedule: Q01DX009 (ip), vehicle: Klucel (hydroxypropylcellulose) (HPC) 93 % of control | [2] 91 % of control | endpoint: mean survival time, dose: 200.0 mg/kg/injection, schedule: Q01DX009 (ip), vehicle: Klucel (hydroxypropylcellulose) (HPC) 93 % of control | [4] 90 % of control | endpoint: mean survival time, dose: 400.0 mg/kg/injection, schedule: Q01DX009 (ip), vehicle: Klucel (hydroxypropylcellulose) (HPC) 93 % of control | [6] 88 % of control

CN1CC2(Cc3ccccc3)c3ccccc3NC2(NC(=O)CCl)C1=O (stereo not drawn)
inactive: endpoint: mean survival time, dose: 25.0 mg/kg/injection, schedule: Q04DX002 (ip), vehicle: saline with Tween-80 87 % of control | [10] 95 % of control | [11] 91 % of control | endpoint: mean survival time, dose: 200.0 mg/kg/injection, schedule: Q01DX001 (ip), vehicle: saline with Tween-80 92 % of control | [12] 89 % of control | endpoint: mean survival time, dose: 400.0 mg/kg/injection, schedule: Q01DX001 (ip), vehicle: saline with Tween-80 96 % of control

C1CC2(CCC13CS3)CS2 (stereo not drawn)
inactive: [10] 98 % of control | [11] 98 % of control | [12] 95 % of control

Nc1ncnc2c1ncn2C1OC(CO)C(=C(Br)Br)C1O (stereo not drawn)
inactive: endpoint: mean survival time, dose: 6.25 mg/kg/injection, schedule: Q01DX005 (ip), vehicle: distilled water + Tween-80 103 % of control | endpoint: mean survival time, dose: 12.5 mg/kg/injection, schedule: Q01DX005 (ip), vehicle: distilled water + Tween-80 100 % of control | endpoint: mean survival time, dose: 25.0 mg/kg/injection, schedule: Q01DX005 (ip), vehicle: distilled water + Tween-80 97 % of control | endpoint: mean survival time, dose: 50.0 mg/kg/injection, schedule: Q01DX005 (ip), vehicle: distilled water + Tween-80 101 % of control | endpoint: mean survival time, dose: 100.0 mg/kg/injection, schedule: Q01DX005 (ip), vehicle: distilled water + Tween-80 100 % of control

OC1(c2ccccc2)c2cscc2C(O)(c2ccccc2)c2c(Cl)sc(Cl)c21 (stereo not drawn)
inactive: endpoint: mean survival time, dose: 6.25 mg/kg/injection, schedule: Q01DX001 (ip), vehicle: saline with Tween-80 100 % of control | endpoint: mean survival time, dose: 12.5 mg/kg/injection, schedule: Q01DX001 (ip), vehicle: saline with Tween-80 95 % of control | endpoint: mean survival time, dose: 25.0 mg/kg/injection, schedule: Q01DX001 (ip), vehicle: saline with Tween-80 88 % of control

O=[N+]([O-])c1cccc(S(=O)(=O)SC(Cl)(Cl)Cl)c1
inactive: endpoint: mean survival time, dose: 6.25 mg/kg/injection, schedule: Q04DX003 (ip), vehicle: saline 102 % of control | endpoint: mean survival time, dose: 12.5 mg/kg/injection, schedule: Q04DX003 (ip), vehicle: saline 97 % of control | endpoint: mean survival time, dose: 25.0 mg/kg/injection, schedule: Q04DX003 (ip), vehicle: saline 102 % of control

O=c1c(O)c(O)c1=O.[NH2-].[NH2-].[NH2-].[NH2-].[NH2-].[Ru+5]
inactive: endpoint: median survival time, dose: 3.12 mg/kg/injection, schedule: Q01DX005 (ip), vehicle: saline 119 % of control | endpoint: median survival time, dose: 3.12 mg/kg/injection, schedule: Q01DX005 (ip), vehicle: suspension in saline 114 % of control | endpoint: median survival time, dose: 6.25 mg/kg/injection, schedule: Q01DX005 (ip), vehicle: saline 122 % of control | endpoint: median survival time, dose: 6.25 mg/kg/injection, schedule: Q01DX005 (ip), vehicle: suspension in saline 114 % of control | endpoint: median survival time, dose: 12.5 mg/kg/injection, schedule: Q01DX005 (ip), vehicle: suspension in saline 109 % of control | endpoint: median survival time, dose: 25.0 mg/kg/injection, schedule: Q01DX005 (ip), vehicle: saline 116 % of control

O=[N+]([O-])c1ccc(CS(=O)(=O)O)cc1
inactive: [7] 104 % of control | [8] 96 % of control | [9] 96 % of control

CC(C)(C)c1ccc(-n2cnc3c(=O)[nH]c(N)nc32)cc1
inactive: [10] 86 % of control | [11] 90 % of control
